US9512139B2, “Conformationally constrained, fully synthetic macrocyclic compounds” (POLYPHOR AG, priority 2009, dated 2016)

Assays:
[1] = Metabolic stability assay, rat microsomes (values in parentheses); type: in vitro ADME; details: value in parentheses
in vitro [2] = type: in vitro ADME, human; details: human, plasma, 10 µM; for Plasma Stability 240 min hum [% remain.]: 4 h
[3] = Metabolic stability assay, human microsomes; type: in vitro ADME; details: human, microsomes; for Metabolic Stability T½ [min] hum / Metabolic Stability 60 min hum [% remain.]: both, 10 µM; for Metabolic Stability 60 min hum [% remain.]: 1 h; for half-life at 10 µM: both sexes
[4] = Metabolic stability assay, CD-1 mouse microsomes; type: in vitro ADME; details: both, CD-1, mouse, microsomes, 10 µM; for Metabolic Stability 60 min mouse [% remain.]: 1 h
[5] = Plasma stability assay, rat plasma (values in parentheses); type: in vitro ADME; details: value in parentheses
Motilin Receptor = molecular target: T1, Motilin Receptor (Homo sapiens, UniProt O43193); assay: Ca2+ assay (FLIPR) for the GPCR motilin receptor, agonist and antagonist mode; type: cell-based; details: antagonist mode
T1 construct: host or cells: Ca2+ optimized hematopoietic cell lines (rat)
T1 sequence (O43193 whole entry, species assumed): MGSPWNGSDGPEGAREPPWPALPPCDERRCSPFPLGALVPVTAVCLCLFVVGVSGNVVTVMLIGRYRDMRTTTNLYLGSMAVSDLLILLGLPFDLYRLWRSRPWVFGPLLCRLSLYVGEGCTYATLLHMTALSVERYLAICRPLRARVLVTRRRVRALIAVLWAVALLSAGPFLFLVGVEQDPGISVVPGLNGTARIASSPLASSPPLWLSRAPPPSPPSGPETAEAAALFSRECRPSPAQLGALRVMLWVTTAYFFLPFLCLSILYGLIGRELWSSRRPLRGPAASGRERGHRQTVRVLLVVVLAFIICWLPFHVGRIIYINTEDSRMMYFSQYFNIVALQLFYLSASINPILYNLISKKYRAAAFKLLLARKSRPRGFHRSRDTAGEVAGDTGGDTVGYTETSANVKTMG
Procedure: Ca^2+ Assays for the GPCRs Motilin Receptor, Prostaglandin F (FP) Receptor, 5-hydroxytryptamine 2B (5-HT2B) Receptor, and Purinoreceptor P2Y1
Assays were performed using on a FLIPR^TETRA fluorometric imaging plate reader (Molecular Devices) with ScreenWorks Version 2 (Molecular Devices) as device operating and data analysis software.
Dose dependent agonist and antagonist activities were determined. Percentage activation and percentage inhibition values were determined.
Percentage activation was determined upon initial addition of the sample compounds followed by 10 minutes incubation at 25° C. Following compound incubation, reference agonists were added at EC80 to determine percentage inhibition.
Reference agonists were purchased from reputable commercial vendors and prepared according to each ligand's specifications. All handling of ligands were done to ensure proper control throughout the experiments.
Example compounds were weighed on a Microbalance (Mettler MX5) and dissolved in 100% DMSO to a final concentration of 2.5 mM and subsequently diluted into the assay buffer.
The Assay buffer was a supplemented HBSS (Hank's Balanced Salt Solution). HBSS was supplemented with 20 mM HEPES (4-(2-hydroxyethyl)-piperazin-1-ethansulfonic acid) and 2.5 mM Probenecid (Sigma P8761).
GPCR assays were performed using Ca^2+ optimized hematopoietic cell lines (rat) with cultures never exceeding 90% confluency. […] After seeding, the assay plates were incubated for forty-five (45) minutes at room temperature. After room temperature incubation, the assay plates were incubated at 37° C. 5% CO2 for 24 hours prior to assaying.
All GPCR assays were performed using Fluo-8 Ca^2+ dye. Ca^2+ dye was prepared at 1× dye concentration in GPCR assay buffer. After 24 hours of incubation, cells were washed with GPCR assay buffer, and then Ca^2+-dye (100 μL/well) was added.
The plates were incubated for 90 minutes at 30° C. 5% CO2 prior to FLIPR assay.
Compound plates were prepared to add 50 μL/well during the agonist assay mode. During the FLIPR assay, 50 μL/well from the compound plate was diluted 3-fold into the existing 100 μL/well from the dye loading step. Therefore all compounds were prepared as 3× the final concentration desired in the assay.
After completion of the first single addition assay run, assay plate was removed from the FLIPR Tetra and placed at 25° C. for seven (7) minutes before antagonist assay.
Using the EC80 values determined during the agonist assay, all pre-incubated sample compound and reference antagonist (if applicable) wells were stimulated at the EC80 of the reference agonist. As reference ligands for the first three assays their obvious natural ligands motilin, prostaglandin F2α, and serotonin (5-HT, 5-Hydroxytryptamine) were used; and for the P2Y1 assay 2MeSATP (2-methyl-thio-adeno-sine 5′-triphosphate, i.e. (2R,3S,4R)-5-(6-amino-2-methylsulfanyl-purin-9-yl)-3,4-dihydroxy-tetrahydrofuran-2-yl]methyl (hydroxy-phosphonooxy-phosphoryl)hydrogen phosphate) was applied.
After the addition of the reference agonist fluorescence was monitored for 180 sec using FLIPR Tetra.
Data Analysis and Results:
From the FLIPR data, with negative control correction enabled, the maximum statistic for each well was exported and percentage activation relative to Emax control was calculated.

in vitro [6] = type: in vitro ADME, mouse; details: both, CD-1, mouse, plasma, 10 µM; for Plasma Stability 240 min mouse [% remain.]: 4 h
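Throughout, for Plasma Stability 240 min mouse [% remain.]: sodium citrate stabilized mouse plasma, parent compound quantified by HPLC/MS/MS relative to its peak area at time zero, run in triplicate.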
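Throughout, for Plasma Stability T½ [min] mouse: sodium citrate stabilized mouse plasma, parent compound quantified by HPLC/MS/MS relative to its peak area at time zero, run in triplicate.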

SMILES | Metabolic Stability 60 min (rat) [% remain.] [1] [% remain.] | Metabolic Stability T½ [min] (rat) [1] | Plasma Stability T½ [min] hum (in vitro [2]) [min] | Plasma Stability 240 min hum [% remain.] (in vitro [2]) | Metabolic Stability T½ [min] hum [3] [min] | Metabolic Stability 60 min hum [% remain.] [3] [% remain.] | Metabolic Stability T½ [min] mouse [4] [min] | Metabolic Stability 60 min mouse [% remain.] [4] [% remain.] | Plasma Stability 240 min (rat) [% remain.] [5] | Plasma Stability T½ [min] (rat) [5] | half-life at 10 µM [3] [h] | IC50 (Motilin Receptor) [µM] | inhibition at 10 µM (Motilin Receptor) [%] | Plasma Stability T½ [min] mouse (in vitro [6]) [min] | Plasma Stability 240 min mouse [% remain.] (in vitro [6]) | half-life at 10 µM ([5]; read-out: Plasma Stability T½ [min] (rat))
COCCNC(=O)[C@@H]1COCC(=O)N2C[C@@H](NCC(C)C)C[C@H]2COc2cccc(c2)C(=O)N1C [Ex. 376, (4S,6S,13S)-6-(isobutylamino)-N-(2-methoxyethyl)-14-methyl-9,15-dioxo-2,11-dioxa-8,14-diazatricyclo[14.3.1.0^4,8]icosa-1(20),16,18-triene-13-carboxamide] | 78 | 60 (60) min | > 240 | 90 | > 60 | 79 | > 60 | 91 | (89) % remain. | (240) min | – | – | – | – | – | –
COCCNC(=O)[C@@H]1COCC(=O)N2C[C@@H](N3CCN(C)CC3)C[C@H]2COc2cccc(c2)C(=O)N1C [Ex. 377, (4S,6S,13S)-N-(2-methoxyethyl)-14-methyl-6-(4-methylpiperazino)-9,15-dioxo-2,11-dioxa-8,14-diazatricyclo[14.3.1.0^4,8]icosa-1(20),16,18-triene-13-carboxamide] | 97 | 60 (60) min | > 240 | 95 | > 60 | 72 | > 60 | 86 | (100) % remain. | (240) min | – | – | – | – | – | –
CN(C)CCNC(=O)[C@@H]1CCC(=O)N(C)CC(=O)N2C[C@@H](NC(=O)Cc3cccc4ccccc34)C[C@H]2COc2ccc(F)cc2C(=O)N1C [Ex. 49, (2S,11S,19aS}-N-[2-(dimethylamino)ethyl]-15-fluoro-7,12-dimethyl-2-{[2-(1-naphthyl)acetyl]amino}-5,8,13-trioxo-2,3,6,7,8,9,10,11,12,13,19,19a-dodecahydro-1H,5H-pyrrolo[2,1-c] [1,4,7,12] benzoxatriazacyclopentadecine-11-carboxamide] | – | – | > 240 | 83 | – | 10 | > 60 | 83 | – | – | 0.4 | 0.16 | 98 | > 240 | 96 | –
CN1CC(=O)N2C[C@@H](NC(=O)Cc3cccc4ccccc34)C[C@H]2COc2ccc(F)cc2C(=O)N(C)[C@H](C(=O)NCCNC(=N)N)CCC1=O [Ex. 484, (2S,11S,19aS)-N-(2-{[amino(imino)methyl]amino}ethyl)-15-fluoro-7,12-dimethyl-2-{[2-(1-naphthyl)acetyl]amino}-5,8,13-trioxo-2,3,6,7,8,9,10,11,12,13,19,19a-dodecahydro-1H,5H-pyrrolo[2,1-c] [1,4,7,12] benzoxatriazacyclopentadecine-11-carboxamide] | – | – | > 240 | 100 | – | 11 | > 60 | 100 | – | – | 0.35 | 0.2 | 99 | > 240 | 90 | –
CN1CCC[C@H](N2CCNCC2)C(=O)N2C[C@@H](O)C[C@H]2COc2cccc(c2)C1=O [Ex. 580, (4S,6S,10S)-6-hydroxy-14-methyl-10-piperazino-2-oxa-8,14-diazatricyclo[14.3.1.0^4,8]icosa-1(20),16,18-triene-9,15-dione] | – | – | > 240 | 70 | > 60 | 100 | – | – | (79) % remain. | (240) min | – | – | – | – | – | –
CN(C)CCNC(=O)[C@@H]1CCC(=O)N(C)CC(=O)N2C[C@@H](NC(=O)Nc3cccc4ccccc34)C[C@H]2COc2ccc(F)cc2C(=O)N1C [Ex. 482, (2S,11S,19aS)-N-[2-(dimethylamino)ethyl]-15-fluoro-7,12-dimethyl-2-{[(1-naphthylamino)carbonyl]amino}-5,8,13-trioxo-2,3,6,7,8,9,10, 11,12,13,19,19a-dodecahydro-1H,5H-pyrrolo [2,1-c] [1,4,7,12]benzoxatriazacyclopentadecine-11-carboxamide] | – | – | > 240 | 100 | – | 11 | > 60 | 84 | – | – | 0.367 | 1.1 | 62 | > 240 | 100 | –
CN1CC(=O)N2C[C@@H](NC(=O)Cc3cccc4ccccc34)C[C@H]2COc2ccc(F)cc2C(=O)N(C)[C@H](C(=O)NCCN)CCC1=O [Ex. 483, (2S,11S,19aS)-N-(2-aminoethyl)-15-fluoro-7,12-dimethyl-2-{[2-(1-naphthyl)acetyl]amino)-5,8,13-trioxo-2,3,6,7,8,9,10,11,12, 13,19,19a-dodecahydro-1H,5H-pyrrolo [2,1-c] [1,4,7,12]benzoxatriazacyclopentadecine-11-carboxamide] | – | – | > 240 | 100 | > 60 | 55 | > 60 | 85 | – | – | – | 0.023 | 100 | > 240 | 100 | –
CN1CCN([C@H]2CCCN(C)C(=O)c3cccc(c3)OC[C@@H]3C[C@H](O)CN3C2=O)CC1 [Ex. 581, (4S,6S,10S)-6-hydroxy-14-methyl-10-(4-methylpiperazino)-2-oxa-8,14-diazatricyclo[14.3.1.0^4,8]icosa-1(20),16,18-triene-9,15-dione] | – | – | > 240 | 70 | > 60 | 98 | > 60 | 100 | (77) % remain. | – | – | – | – | – | – | 210
